In article PMC6192554, “In vitro toxicity and efficacy of verdinexor, an exportin 1 inhibitor, on opportunistic viruses affecting immunocompromised individuals” (PLoS ONE, 2018):

What was measured:
[1] = Cytotoxicity in BCBL-1 cells (CellTiter-Glo); assay type: cell-based; conditions: human
Procedure: Cytotoxicity assays: Concurrent assessment of cytotoxicity was also performed for each study in the same cell line and with the same compound exposure. For KSHV, cell viability was assessed with the CellTiter-Glo Luminescent Cell Viability Assay (Promega) using manufacturer’s protocol. Luminescence was quantified on a luminometer. Standard methods were used to calculate the 50% cytotoxic level (CC50).

[2] = mouse, in vivo, 10 mg/kg; cited from earlier work
histamine H1 receptor = histamine H1 receptor (Homo sapiens, UniProt P35367); assay: Histamine H1 receptor binding (off-target panel); conditions: Study No. KS-1016 and PE-50946871
histamine H1 receptor, sequence (P35367 whole entry, species assumed): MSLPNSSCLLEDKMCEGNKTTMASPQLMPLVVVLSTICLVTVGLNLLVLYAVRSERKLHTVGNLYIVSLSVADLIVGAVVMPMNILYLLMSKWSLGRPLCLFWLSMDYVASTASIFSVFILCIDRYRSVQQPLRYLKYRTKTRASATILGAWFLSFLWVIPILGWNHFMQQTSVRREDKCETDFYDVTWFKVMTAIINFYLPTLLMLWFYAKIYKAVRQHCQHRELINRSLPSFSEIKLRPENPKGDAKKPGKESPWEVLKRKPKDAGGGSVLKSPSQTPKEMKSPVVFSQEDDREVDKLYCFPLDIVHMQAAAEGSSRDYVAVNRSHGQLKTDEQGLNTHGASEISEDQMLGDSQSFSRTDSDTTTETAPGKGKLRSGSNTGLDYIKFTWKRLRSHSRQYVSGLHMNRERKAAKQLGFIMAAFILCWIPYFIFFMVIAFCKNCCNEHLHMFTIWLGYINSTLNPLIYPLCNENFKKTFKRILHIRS

diverse panel of viruses = assay: Broad antiviral screening, summary over all viruses; assay type: cell-based; conditions: across the panel of viruses; read-out: median EC50
Procedure: Each assay was performed in triplicate in 2 independent assays. In some cases different assays were used for the secondary screen, as alternate experimental procedures are able to measure differential effects on the viral life cycle (ie. qPCR for genome replication, plaque reduction for replication, assembly and release, etc.).

[3] = test system: 104 principal receptor/ligand interactions; assay: Off-target panel of in vitro protein binding assays; conditions: 10 μM; 104 receptor/ligand interactions
Procedure: Serum concentrations with Verdinexor have been previously established in in vivo models of influenza in both mice and ferrets. In mice receiving 10mg/kg and ferrets receiving 5mg/kg, max plasma concentration of verdinexor was approximately 1200 (ng/mL) however, the half life in mice was extended (6 hours) as compared to that of ferrets (2 hours). Serum protein binding of verdinexor in humans is 98.4%. […] A Phase 1, Randomized, Double-Blind, Placebo-Controlled, Sequential, Dose-Escalating Trial to Evaluate the Safety and Tolerability of Oral Verdinexor (KPT-335) in Healthy Adult Subjects was conducted in Nucleus Network, Melbourne, Victoria, Australia [ClinicalTrials.gov: NCT02431364]. No study results are currently posted for this study. Furthermore, a clinical study was submitted to the USA FDA on IND#122718. This phase 1a, Randomized, Double-Blind, Placebo-Controlled, Sequential, Dose-Escalating Trial of Single and Multi-Dose oral verdinexor (KPT-335) to Evaluate the Safety and Tolerability in Healthy Elderly Volunteers is yet to be initiated and recruit subjects.

Murine CMV strain Smith = assay: MCMV plaque reduction assay in MEF cells; assay type: cell-based, murine cytomegalovirus; conditions: primary screen
Procedure: Murine CMV strain Smith was obtained from Earl Kern and assayed in mouse embryonic fibroblast cells (MEF) immortalized by telomerization. Guinea pig CMV strain 22122 was obtained from the ATCC and assayed in primary guinea pig lung cells (GPL). Both MEF and GPL cells were prepared at the UAB tissue procurement facility with IRB approval as previously described.
Plaque reduction assays for MCMV, GPCMV were performed on monolayers of GPL (GPCMV) or MEF (MCMV) cells prepared in six-well plates and incubated at 37°C for 2d to allow the cells to reach confluency. Media was then aspirated from the wells and 0.2ml of virus was added to each of three wells to yield 20–30 plaques in each well. The virus was allowed to adsorb to the cells for 1h and the plates were agitated every 15min. Compounds were diluted in assay media consisting of MEM with Earl’s salts supplemented with 2% FBS, L-glutamine, penicillin, and gentamycin. Solutions ranging from 0.0032–10μM (primary) or 0.032–100μM (secondary) were added to triplicate wells and the plates were incubated for various times, depending on the virus used. For MCMV and GPCMV, the cell monolayer was stained with 1% neutral red solution for 4h at which time the stain was aspirated and cells were washed with PBS. […]

HIV = test system: HIV; design: method as in PMID 3025240; conditions: PBMCs from healthy donors; read-out: EC50, anti-HIV activity; cited from earlier work
KSHV strain BCBL-1 = assay: KSHV qPCR of viral DNA in PMA-induced BCBL-1 cells; assay type: cell-based, Kaposi's sarcoma-associated herpesvirus; conditions: Human gammaherpesvirus 8, BCBL1, KSHV
Procedure: KSHV strain BCBL-1 was obtained as latently infected BCBL-1 cells through the NIH AIDS Research and Reference Reagent Program. BCBL-1 cells were maintained in growth medium consisting of RPMI 1640 supplemented with 10% FBS, penicillin, gentamicin, and l-glutamine.
To quantify virus, compound was diluted from 0.008–100μM and added to BCBL-1 cells induced to undergo a lytic infection by the addition of 100ng/ml phorbol 12-myristate 13-acetate (PMA) (Promega). After 7d, total DNA was prepared, and viral DNA was quantified by qPCR (see S1 Table for primer/probe sequences). Plasmid pMP218 containing a DNA sequence corresponding to nucleotides 14120–14182 (AF148805.2) was used to provide absolute quantification of viral DNA and EC50 [11].

[4] = test system: BK polyomavirus (BKPyV) Gardner strain; assay: BKPyV qPCR genome copy assay in HFF cells; assay type: cell-based; conditions: Betapolyomavirus hominis
Procedure: John Cunningham polyomavirus (JCPyV) strains MAD-1 and MAD-4 and BK polyomavirus (BKPyV) Gardner strain were obtained from ATCC. COS-7 cells were obtained from ATCC and maintained according to ATCC-supplied protocols.
Primary assays for BKPyV were performed in 384-well plates containing monolayers of HFF cells. Compound dilutions ranging from 0.0032–100μM were prepared in plates containing cells which were subsequently infected at an MOI of 0.001. After a 7d incubation, total DNA was prepared using Extracta and genome copy number was quantified by qPCR using the primers and probe listed in S1 Table [18]. Plasmid pMP526 served as the DNA standard for quantification purposes. Compounds were confirmed in a similar assay in 96-well plates according to established laboratory protocols with the compounds added 1h […] to identify compounds that inhibit early stages of replication including adsorption and entry. Genome copy number was determined by methods described above.

O=C(C=Cn1cnc(-c2cc(C(F)(F)F)cc(C(F)(F)F)c2)n1)NNc1ccccn1 (stereo in doubt) [verdinexor, (E)-3-[3-[3,5-bis(trifluoromethyl)phenyl]-1,2,4-triazol-1-yl]-N'-pyridin-2-ylprop-2-enehydrazide]
CC50 ([1]; KSHV primary screen): 2760 nM
CC50 ([1]; KSHV secondary screen): 1400 nM
half life [2]: 6 h
inhibition at 10 µM (histamine H1 receptor): 33%
EC50 (diverse panel of viruses): 2000 nM
effect on off-target panel [3]: none of the enzymes, receptors, transporters, kinases, or cysteine proteases were significantly affected
EC50 (Murine CMV strain Smith): 190 nM
EC50 (HIV): 116 ± 54 nM
EC50 (KSHV strain BCBL-1; primary screen): < 800 nM
EC50 (KSHV strain BCBL-1; secondary screen): 270 nM
EC50 ([4]; primary screen): 7620 nM
EC50 ([4]; secondary screen, compound added 1h post-infection): 2290 nM
